One may read the solubility as how much of the substance goes into solution per volume. A high value points to much dissolved substance. As a reminder, the Cmax is the peak of the concentration-time curve. The IC50 is the concentration that inhibits the measured activity by half.

The source of these data is ChEMBL document CHEMBL1128041, “Thiophene derivatives as extremely high affinity P3 ligands for the hydroxyethylpiperazine class of HIV-1 protease inhibitors” (Bioorg Med Chem Lett, 1995).

A short description of series [1]: Solubility at pH 5.2. The class given is physicochemical. Conditions: buffer.
Series [2] is described as follows: Solubility at pH 7.4. The class given is physicochemical. The conditions noted are these: buffer.
Series [3] in a line: Maximal plasma concentration was determined. The class given is ADME, organism-based. The conditions noted are these: rat.
Series [4] relates to MT4. As to the kind of experiment: Compound was tested in vitro for antiviral activity against MT-4 human lymphoid cells infected with the HIV IIIb isolate; value ranges from 25-50. Conditions: read-out: CIC95. The class given is functional.
Series [5] deals with MT4. As to the kind of experiment: Compound was tested in vitro for antiviral activity against MT-4 human lymphoid cells infected with the HIV IIIb isolate. The conditions noted are these: read-out: CIC95. The class given is functional.
Series [6] addresses Human immunodeficiency virus type 1 protease (Human immunodeficiency virus 1, UniProt Q72874). As to the kind of experiment: Inhibition of HIV-1 Protease.

In brackets after ≈: the same amount, converted by molar mass. Some results are limits rather than exact numbers.

Consider `CC(C)[C@@H]1[C@H](OC(=O)N[C@@H](Cc2ccccc2)[C@H](O)CN2CCN(CCc3cccs3)C[C@H]2C(=O)NC(C)(C)C)CCS1(=O)=O`, for which the results for the solubility in series [1] and in series [2] were 1270 µg/mL (≈ 1920 µM) and 91.3 µg/mL (≈ 138 µM), respectively. For the same compound, the peak concentration (Cmax) in series [3] is over 1000 nM. Besides, in the series on MT4 [4], the IC95 stood at 0.025 µM.
For `CC(C)[C@@H]1[C@H](OC(=O)N[C@@H](Cc2ccccc2)[C@H](O)CN2CCN(Cc3cc4sccc4s3)C[C@H]2C(=O)NC(C)(C)C)CCS1(=O)=O`, the solubility in series [1] is 6.9 µg/mL (≈ 9.79 µM); in series [2], under 0.05 µg/mL. In addition, the IC95 in the series on MT4 [5] worked out at 0.006 µM.
With `Cc1cc(CN2CCN(C[C@@H](O)[C@H](Cc3ccccc3)NC(=O)O[C@@H]3CCS(=O)(=O)[C@@H]3C(C)C)[C@H](C(=O)NC(C)(C)C)C2)cc(Cl)n1`, in the series with MT4 [5], the IC95 worked out at 0.025 µM.
The same measure, in the same setting: the same measure for `CC(C)[C@@H]1[C@H](OC(=O)N[C@@H](Cc2ccccc2)[C@H](O)CN2CCN(CCc3ccsc3)C[C@H]2C(=O)NC(C)(C)C)CCS1(=O)=O`: 0.05 µM.
For `CC(C)[C@@H]1[C@H](OC(=O)N[C@@H](Cc2ccccc2)[C@H](O)CN2CCN(Cc3cc4ccsc4s3)C[C@H]2C(=O)NC(C)(C)C)CCS1(=O)=O`, the solubility in series [1] was found to be 11.1 µg/mL (≈ 15.7 µM); in series [2] it was 0.1 µg/mL (≈ 0.142 µM). Moreover, the IC95 with MT4 [5] worked out at 0.012 µM.
In the case of `CC(C)[C@@H]1[C@H](OC(=O)N[C@@H](Cc2ccccc2)[C@H](O)CN2CCN(Cc3cccs3)C[C@H]2C(=O)NC(C)(C)C)CCS1(=O)=O`, the IC95 in the series on MT4 [4] amounted to 0.025 µM.
As for `CC(C)[C@@H]1[C@H](OC(=O)N[C@@H](Cc2ccccc2)[C@H](O)CN2CCN(Cc3csc4ccc(Cl)cc34)C[C@H]2C(=O)NC(C)(C)C)CCS1(=O)=O`, in the series on MT4 [5], the IC95 was found to be 0.1 µM. The midpoint of inhibition in series [6], the IC50, lay at 0.47 nM.
As for `CC(C)[C@@H]1[C@H](OC(=O)N[C@@H](Cc2ccccc2)[C@H](O)CN2CCN(Cc3ccc(-c4cccs4)s3)C[C@H]2C(=O)NC(C)(C)C)CCS1(=O)=O`, in the series on MT4 [5], the IC95 was 0.05 µM.
With `CC(C)[C@@H]1[C@H](OC(=O)N[C@@H](Cc2ccccc2)[C@H](O)CN2CCN(Cc3ccc(Br)s3)C[C@H]2C(=O)NC(C)(C)C)CCS1(=O)=O`, in the series with MT4 [5], the IC95 turned out to be 0.1 µM.
Consider `CC(C)[C@@H]1[C@H](OC(=O)N[C@@H](Cc2ccccc2)[C@H](O)CN2CCN(Cc3cc(Br)cs3)C[C@H]2C(=O)NC(C)(C)C)CCS1(=O)=O`, for which the solubility in series [1] is 37.2 µg/mL (≈ 51.1 µM); in series [2], under 0.08 µg/mL. Also, the IC95 in the series on MT4 [5] turned out to be 0.025 µM.
Take `CC(C)[C@@H]1[C@H](OC(=O)N[C@@H](Cc2ccccc2)[C@H](O)CN2CCN(Cc3ccsc3)C[C@H]2C(=O)NC(C)(C)C)CCS1(=O)=O`: the IC95 in the series on MT4 [5] turned out to be 0.05 µM.
The same measure, in the same setting: the same measure for `CCc1ccc(CCN2CCN(C[C@@H](O)[C@H](Cc3ccccc3)NC(=O)O[C@@H]3CCS(=O)(=O)[C@@H]3C(C)C)[C@H](C(=O)NC(C)(C)C)C2)s1`: 0.05 µM; for `CC(C)[C@@H]1[C@H](OC(=O)N[C@@H](Cc2ccccc2)[C@H](O)CN2CCN(Cc3cc4ccccc4s3)C[C@H]2C(=O)NC(C)(C)C)CCS1(=O)=O`: 0.1 µM.
